From PubChem BioAssay (NCI)
“And” between values parts separate entries of the source, which are not always exact repeats. Identical values can stand only once.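 Where inhibition never reached the appropriate level, the endpoint shown equals the highest concentration tested. Otherwise, values were interpolated linearly from a five-concentration, 48-hour dose response in 96-well plates. GI50 is the concentration that inhibits growth by half. TGI: total growth inhibition.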

Tests used:
Experiment in all cases: DTP human tumour cell line panel, 48 h
[1] = test system: CAKI-1 renal
[2] = test system: HL-60(TB) leukemia
[3] = test system: HT29 colon
[4] = test system: KM12 colon
[5] = test system: SNB-19 CNS
[6] = test system: UACC-257 melanoma
[7] = test system: NCI-H226 lung
[8] = test system: SK-MEL-2 melanoma
[9] = test system: HS 578T breast
[10] = test system: PC-3 prostate

SMILES	TGI [1] [µM]	TGI [2] [µM]	TGI [3] [µM]	TGI [4] [µM]	TGI [5] [µM]	TGI [6] [µM]	TGI [7]	TGI [8] [µM]	GI50 [1] [µM]	GI50 [9] [µM]	TGI [9] [µM]	GI50 [3] [µM]	GI50 [4] [µM]	GI50 [7] [µM]	GI50 [10] [µM]	TGI [10] [µM]	GI50 [8] [µM]	GI50 [5] [µM]	GI50 [6] [µM]	GI50 [2] [µM]
COC1CC(OS(=O)(=O)c2ccc([N+](=O)[O-])cc2)C(OC(=O)c2ccccc2)C(C)O1 (configuration not stated)	> 100	> 100	> 100	> 100	> 100	> 100														
CC(C)C1CC[C@@H](C)C[C@@]1(O)CC(N)=O (some centres not stated)	> 100		> 100	> 100	> 100	> 100	> 100 µM	> 100												
COc1ccc2c(c1)c(=O)oc1cc(OC/C(C)=N\O)ccc12	> 100		> 100	> 100	> 100	> 100	> 100 µM	> 100	> 100	27.6	> 100	> 100	> 100	> 100	> 100	> 100	> 100	48.3	> 100	
CCOC(=O)N1CCN(C=S)CC1		> 100	> 100	> 100	> 100	> 100		> 100												
COc1cc([C@@H]2OC[C@@H]3C(c4cc(OC)c5c(c4)OCO5)OC[C@@H]32)cc(OC)c1OC (some centres not stated)	> 100		> 100	> 100	> 100	> 100	> 100 µM	> 100			> 100					> 100				
Cn1cc(C(=O)NCCC(=N)N)cc1NC(=O)C1=[N+](C)C=C(NC(=O)c2cccc(C(=O)NC3=CC(C(=O)Nc4cc(C(=O)NCCC(=N)N)cn4C)=[N+](C)C3)c2)C1	> 100	> 100	> 100	> 100	> 100	> 100	> 100 µM	> 100												
Nc1ccnc(=O)[nH]1	> 100	> 100	> 100	> 100		> 100	> 100 µM	> 100												
CCCCNc1nc(C#N)c(N)s1	> 100	> 100	> 100	> 100	> 100	> 100	> 100 µM	> 100												
COc1cc([N+](=O)[O-])c(OC)cc1-c1nc2sc(Cl)cn2c1/C(N)=N/C(=N)N	> 100		> 100	9.16	> 100	22.6	53.9 µM		39	2.72	6.8	3.02	2.75	20.9	3.22	13		3.91	8	
O=C(O)C(SC(=S)c1ccc(C(=S)SC(C(=O)O)c2ccccc2)cc1)c1ccccc1 (configuration not stated)		> 100	> 100	> 100	> 100	> 100	> 100 µM	> 100												
CCc1cc(C(=O)OC)cn1C(=N)c1ccc(Cl)cc1	> 100	> 100	> 100	> 100	> 100	> 100	> 100 µM	> 100												
CC(C)(C)c1ccc(Oc2nccc(-c3c(-c4ccc(F)cc4)ncn3C3CCNCC3)n2)cc1	7.64	9.1	4.17	7.61	7.42			9.1	3.96	5.1	13.1	1.03	3.95		2.88	6.19	5.21	3.73		4.64
COc1cnc2c(c1)C(=O)c1c-2n(CCCn2ccnc2)c(=O)c2cc(F)ccc12		0.311	0.226	1.57	11.4	0.493	0.213 µM	0.449		0.504	> 100	0.013	0.0589	0.0251	0.0576	> 100	0.232	< 0.01	0.102	0.0363
CCOc1ccc2c(c1)[n+]([O-])c(-c1ccc(Cl)cc1)c(N)[n+]2[O-]	> 100	> 100	> 100	> 100	> 100	> 100	> 100 µM	> 100												
COc1ccc(C(=O)OC2C(OC3C(O)COC(O[C@H]4C[C@H]5[C@@H]6CC=C7C[C@@H](O)CC[C@]7(C)[C@H]6CC[C@]5(C)[C@H]4[C@H](C)C(=O)CCC(C)C)C3OC(N)=O)OCC(O)C2O)cc1 (some centres not stated)	0.975		4.27	4.37	3.2	0.472		0.242	0.102	< 0.003	0.37	0.0737	0.175		0.0073	0.473	0.00527	0.381	0.03	
Cc1ccc(S(=O)(=O)N/N=C/c2c(O)ccc3ccccc23)cc1	35.3	> 100	> 100	44.9	> 100	> 100		49.1			46.8					58.6				
Cc1ccc(Nc2n[nH]c(=S)s2)cc1C	> 100	> 100	> 100	> 100	> 100	> 100		> 100			> 100					> 100				
Cc1ccc(S(=O)(=O)OC2CSS(=O)CC2OS(=O)(=O)c2ccc(C)cc2)cc1 (configuration not stated)	25.7	28.3	87.5	31.3	32	28.2	34.4 µM													
CC(=O)CC(=O)OC1CC(C)CCC1C(C)C (configuration not stated)	> 100	40.2	> 100	> 100	> 100	> 100		78.8												
CCN(CC)c1c(C(=O)/C=C/c2ccc(OC)cc2)c(-c2ccccc2)nn(C)c1=O	> 100	43.9	41.3	37.1	45.9	60.8	47.9 µM	38.7												

SMILES	TGI [1] [µM]	TGI [2] [µM]	TGI [3] [µM]	TGI [4] [µM]	TGI [5] [µM]	TGI [6] [µM]	TGI [7]	TGI [8] [µM]	GI50 [1] [µM]	GI50 [9] [µM]	TGI [9] [µM]	GI50 [3] [µM]	GI50 [4] [µM]	GI50 [7] [µM]	GI50 [10] [µM]	TGI [10] [µM]	GI50 [8] [µM]	GI50 [5] [µM]	GI50 [6] [µM]	GI50 [2] [µM]
C(#Cc1ccccc1C#Cc1cccs1)c1cccs1	> 100		> 100	> 100	> 100	> 100	> 100 µM	> 100	43.2			23.5	29.5	39.2	25.4	> 100	41.7	> 100	> 100	
Cc1ccc2nc(NC(=O)C(=O)C(C#N)c3nc4ccccc4s3)sc2c1 (configuration not stated)	94.3		> 100	> 100	83.6	87.6	89.3 µM	> 100												
COc1cc(C(=O)O[C@H](C(=O)NCCCCCNC(=O)[C@@H](OC(=O)c2cc(OC)cc3c(C)cccc23)[C@]2(C)CO2)[C@]2(C)CO2)c2cccc(C)c2c1	1.89		> 100	1.41	> 20.4	5.33	4.09 µM		0.355	0.943	6.51	0.182	0.5	0.93	0.997	> 41.1	0.2	0.93	2.03	
COc1ccc(Br)c(N/N=C2\CCCNC2=O)c1	91.8	> 100	> 100	> 100	> 100	> 100	> 100 µM	> 100												
CCS(CC)(CC)CC1CCCC2=CCC(P(=O)(c3ccccc3)c3ccccc3)CC21 (configuration not stated)	24.4	12.3	22.8	30.6	29		39.6 µM	33.8												
CCC[CH2][Sn]1([CH2]CCC)[O]C(=O)c2cccnc2[O]1	3.93	3.99	19.5	17.6	10.6	5.04	23 µM	3.81	0.74			5.97	4.6	10.5			1.71	2.65	1.55	1.34
CN1C(=Nc2ccccc2)SC1=Nc1ccccc1		> 100	> 100	> 100	> 100	> 100	> 100 µM	> 100												
CN(C)CC/C(=N\Nc1ccc([N+](=O)[O-])cc1)c1ccccc1		16.3	21.2	22.3	28.9	30.5		28.2												
O=C(O)C(/C=C/c1ccccc1)c1ccccc1 (configuration not stated)		75.1	> 100		> 100	> 100	> 100 µM	> 100			> 100					> 100				
COC(=O)C1(C)CCC(c2ccc(C)cc2)=C(CC(=O)O)C1 (configuration not stated)		> 100	> 100		> 100	> 100		> 100			> 100					> 100				
O=[N+]([O-])c1cc(C(F)(F)F)cc([N+](=O)[O-])c1CCl	7.37	3.21	4.03	4.92	19.9	10.2	3.11 µM	> 26.7												
Cc1cc(=O)n(-c2ccccc2C)c(C)n1	> 100	> 100	> 100	> 100	> 100	> 100	> 100 µM	> 100												
Cc1cc2c(cc1C)N(C(=O)CCl)CC(=O)N2	3.52	5.74	3.73	22.2	26.2	18.5		14.4	1.84	4.08	68.8	2.01	8.2		4.48	18.9	4.2	12.6	4.83	2.69
CC/C=C1/C(=O)C=C[C@@H]1C/C=C\CCCC(=O)OC	7.45	6.94	5.3	5.06	12.9	7.1	31.2 µM	6.94	2.7			2.25	2.08	13.7	3.02	8.56	2.24	3.27	2.51	2.17
COc1ccc(/C(COc2ccc3c(=O)cc(-c4ccccc4)oc3c2)=N\O)cc1	28.4	> 50	> 50	> 42.6	> 50	> 35.5	> 50 µM	> 39.1	1.83			25.6	12.5	17.7	12.7	> 36.1	13.3	18.7	19.6	> 14
CC(C)(C)OC(=O)N1CCN(CCn2cc(C(F)(F)F)c3c(Cl)ncnc32)CC1		6.46	11.1	35.3	3.72	10.4	43.3 µM	3.9		2.84	8.29	3.27	16.9	20	1.79	3.43	1.93	2	3.31	2.43
COc1cc2c(c(OC)c1OC)-c1ccc(SC)c(=O)cc1C(CO)C2 (configuration not stated)	> 100	0.0439	0.385	0.079	> 100	> 100	0.59 µM and 0.138 µM	< 0.01	< 0.01				< 0.01	< 0.01			< 0.01	< 0.01	3.45	< 0.01
OC(c1ccccc1)(c1ccccc1)c1ccncc1	> 100	> 100	> 100	> 100	> 100	> 100	> 100 µM	> 100												
COc1ccc2cc(C(=O)/C=C/c3ccc(Cl)cc3Cl)ccc2c1	70		51.3	35	71.5	55		95.7	15.8	28.1	73.7	6.63	14.3		30.8	> 100	44.4	25.7	20	
c1ccc2c(c1)cc(C1NCCc3[nH]cnc31)c1ccccc12 (configuration not stated)	> 100	> 100	> 100	> 100	> 100	> 68.3	> 68.1 µM	36.5												
